TGI data for eight compounds are collected here from PubChem BioAssay (NCI).

Test systems include LOX IMVI melanoma; T-47D breast; SNB-75 CNS; HS 578T breast; CCRF-CEM leukemia; MDA-N; HL-60(TB) leukemia; HOP-62 NSCLC; HCC-2998 colon; HT29 colon; SF-539 CNS; BT-549 breast; SK-MEL-28 melanoma; NCI-H23 lung; A498 renal.
Common to all, as to assay: inhibition of tumour cell growth, NCI panel, 48 h

The structures appear in SMILES notation.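 Values below derive from 48-hour exposures of cells grown in 96-well plates, with endpoints linearly interpolated between the two concentrations bracketing the appropriate inhibition level. TGI is the concentration that stops growth completely.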

As to `O=c1oc2ccccc2c(O)c1C(c1ccc2ccccc2c1)c1c(O)c2ccccc2oc1=O`, the TGI in the assay on LOX IMVI melanoma is over 100 µM; in the assay on T-47D breast it was over 100 µM; with SNB-75 CNS it was 48.7 µM; in the assay on HS 578T breast, 70.6 µM; with CCRF-CEM leukemia, over 100 µM; in the assay with MDA-N, 68.9 µM. The TGI in the assay on HL-60(TB) leukemia was 75.5 µM; in the assay on HOP-62 NSCLC it was over 100 µM; in the assay with HCC-2998 colon it was 32.8 µM; with HT29 colon, 33.8 µM; with SF-539 CNS, 68.9 µM; in the assay on BT-549 breast, 60.8 µM. Moreover, the TGI with SK-MEL-28 melanoma was 80.1 µM; in the assay on NCI-H23 lung, 68.8 µM; with A498 renal it was over 100 µM.

In the case of `Cc1ccc(S(=O)(=O)Oc2coc(CO)cc2=O)cc1`, the TGI in the assay with LOX IMVI melanoma was 14.9 µM; in the assay with T-47D breast, 30 µM; in the assay with SNB-75 CNS it was 33.3 µM; with HS 578T breast, over 72.7 µM; with CCRF-CEM leukemia it was 10.7 µM; in the assay on MDA-N, 25.8 µM. Further, the TGI in the assay on HL-60(TB) leukemia is 12.5 µM; in the assay with HOP-62 NSCLC, 34 µM; in the assay on HCC-2998 colon it was 27 µM; with HT29 colon, 30.4 µM; in the assay with SF-539 CNS it was 87.8 µM; with BT-549 breast, 39.2 µM. Further, the TGI amounted to 36.6 µM in the assay on SK-MEL-28 melanoma, 35.3 µM in the assay on NCI-H23 lung and 30.2 µM in the assay on A498 renal.

With `CC1=C(C(=O)OC23CC4CC(CC(C4)C2)C3)C(c2ccccc2OC(F)F)C(C(=O)OC23CC4CC(CC(C4)C2)C3)=C(C)N1` (centres undefined), the TGI in the assay on LOX IMVI melanoma, in the assay with T-47D breast, in the assay on SNB-75 CNS, in the assay on HS 578T breast, in the assay with CCRF-CEM leukemia and with MDA-N was over 100 µM throughout. The TGI with HL-60(TB) leukemia, with HOP-62 NSCLC, with HCC-2998 colon, in the assay on HT29 colon, with SF-539 CNS and in the assay with BT-549 breast was over 100 µM each time. The TGI in the assay with SK-MEL-28 melanoma, in the assay with NCI-H23 lung and in the assay with A498 renal was over 100 µM in each case.

`COc1c(C(CC(C)C)OC(C)=O)ccc2c1C(=O)OCc1cc(C)cc(O)c1O2` (centres undefined): the TGI was 27.8 µM with LOX IMVI melanoma; 23.6 µM with T-47D breast; 42.1 µM in the assay with SNB-75 CNS; 50.4 µM in the assay with HS 578T breast; over 100 µM with CCRF-CEM leukemia; 29.9 µM in the assay with MDA-N. The TGI in the assay with HL-60(TB) leukemia is over 100 µM; in the assay with HOP-62 NSCLC, 32.8 µM; in the assay on HCC-2998 colon, 25.4 µM; in the assay with HT29 colon, 32.2 µM; with SF-539 CNS it was 32.9 µM; in the assay on BT-549 breast, 30 µM. Besides, the values for the TGI with SK-MEL-28 melanoma, with NCI-H23 lung and with A498 renal were 29.4 µM, 23.3 µM and 34.7 µM, respectively.

Turning to `COC(=O)C(Cc1ccccc1)C(=O)NC(CNC(=O)OCc1ccccc1)C(=O)OCc1ccccc1` (centres undefined), the TGI with LOX IMVI melanoma was 36 µM; in the assay on T-47D breast, over 100 µM; with SNB-75 CNS it was 64.8 µM; in the assay on HS 578T breast, over 100 µM; with CCRF-CEM leukemia it was 48.9 µM; in the assay with MDA-N, 58 µM. The TGI with HL-60(TB) leukemia was over 67.9 µM; in the assay on HOP-62 NSCLC, over 100 µM; with HCC-2998 colon it was over 95.4 µM; in the assay on HT29 colon, over 61.2 µM; in the assay on SF-539 CNS, over 100 µM; in the assay on BT-549 breast, over 100 µM. Also, the TGI in the assay with SK-MEL-28 melanoma was 44 µM; in the assay with NCI-H23 lung, over 100 µM; in the assay on A498 renal it was over 81.4 µM.

`CCC/C(Cl)=N\OC(=O)Nc1ccc(Br)cc1`: the TGI in the assay with LOX IMVI melanoma was 10.6 µM; in the assay on T-47D breast it was 25.2 µM; in the assay with SNB-75 CNS, 29 µM; in the assay on HS 578T breast it was 66.6 µM; with CCRF-CEM leukemia it was 4.3 µM; in the assay on MDA-N it was 27.3 µM. The TGI in the assay on HL-60(TB) leukemia is 7.22 µM; in the assay with HOP-62 NSCLC, 42.6 µM; in the assay on HCC-2998 colon, 32.9 µM; in the assay on HT29 colon, 44.1 µM; in the assay with SF-539 CNS, 32.9 µM; in the assay on BT-549 breast, 62.6 µM. Further, the values for the TGI in the assay on SK-MEL-28 melanoma, with NCI-H23 lung and in the assay on A498 renal were 32.5 µM, 40.6 µM and 32.2 µM, respectively.

Take `CCC1=NC(N/N=C/c2ccccc2O)=N/C1=C\c1ccccc1O`: the TGI with LOX IMVI melanoma is over 42.9 µM; in the assay with T-47D breast, over 76.5 µM; in the assay with SNB-75 CNS, over 100 µM; in the assay with HS 578T breast, over 83.7 µM; in the assay with CCRF-CEM leukemia it was over 100 µM; in the assay with MDA-N it was over 100 µM. Besides, the TGI in the assay with HL-60(TB) leukemia was 10.6 µM; in the assay with HOP-62 NSCLC, 39.2 µM; in the assay on HCC-2998 colon it was 36.4 µM; in the assay on HT29 colon it was 37.5 µM; in the assay on BT-549 breast it was over 53.7 µM; with SK-MEL-28 melanoma, over 100 µM. The TGI with NCI-H23 lung is over 74.7 µM; in the assay with A498 renal it was 85.4 µM.

`CNC(=O)C(C)NC(=O)C(Cc1ccccc1)NC(=O)OC(C)(C)C` (centres undefined): the TGI in the assay with LOX IMVI melanoma, in the assay with T-47D breast, in the assay with SNB-75 CNS, in the assay with HS 578T breast, with CCRF-CEM leukemia and with MDA-N was over 100 µM throughout. Besides, the TGI with HL-60(TB) leukemia, in the assay with HOP-62 NSCLC, with HCC-2998 colon, in the assay with HT29 colon, with SF-539 CNS and in the assay on BT-549 breast was over 100 µM each time. Besides, the TGI in the assay with SK-MEL-28 melanoma, with NCI-H23 lung and with A498 renal was over 100 µM throughout.
